# Earlier results, collected in patent US20230065964A1, “COMPOSITION FOR ENHANCING UROLITHIN PRODUCTION IN A HUMAN SUBJECT” (Migalis ApS, priority 2020, published 2023).
# Legend:
# Chaenorhabditis elegans = conditions: for Pharyngeal pumping rate and mobility: during aging
# [1] = system: skeletal muscle of humans; conditions: 28 days oral administration, 500 mg/d and 1000 mg/d
Structure (SMILES),Pharyngeal pumping rate and mobility (Chaenorhabditis elegans),mitochondrial biogenesis in the skeletal muscle [1],Lean muscle mass (old mice),greater level of spontaneous exercise (muscle function) (old mice) [%],greater running endurance (endurance capacity) (old mice) [%],expression of autophagy and mitophagy transcripts (old mice; molecular level),mitochondrial biogenesis (Chaenorhabditis elegans; older worms),mitophagy (Chaenorhabditis elegans; throughout the duration of the treatment)
O=c1oc2c(O)c(O)ccc2c2cc(O)c(O)cc12 [urolithin D],mild to no benefit,–,–,–,–,–,–,–
O=c1oc2cc(O)ccc2c2cc(O)c(O)cc12 [urolithin C],mild to no benefit,–,–,–,–,–,–,–
"O=c1oc2cc(O)ccc2c2ccc(O)cc12 [Urolithin A, urolithin A]",improved,stimulated,did not increase,57,42,general tendency for a higher expression,activated,activated mitophagy
